Measurements taken from US20240358692A1, “TREATMENT OF SCLERODERMA” (Aisa Pharma, Inc., priority 2023, published 2024).

How the values were obtained:
[1] = system: participants with SSc-RP; test: Average duration of weekly RP attacks (minutes), patient diary; type: in vivo, human; settings: Tadalafil 5 mg
Text: The absolute change in average duration of weekly RP attacks from baseline to the end of each dosing period was and will be a secondary outcome variable. The sponsor-developed participant-informed diary was and will be used to record data. Average duration of weekly RP attacks is defined as the total duration of RP attacks divided by total number of RP attacks within the last 7 days of each dosing period. Total duration of RP attacks during the last 7 days of screening period divided by the total number of RP attacks will be used as baseline for the analysis of all periods. The variable will be calculated similar to frequency data as before.

[2] = system: participants with SSc-RP; test: SHAQ - Alternative Disability Index; type: in vivo, human
Text: The SHAQ is used to calculate a Disability Index to assess the participant qualify of life. The eight categories assessed by the Disability Index are 1) dressing and grooming, 2) arising, 3) eating, 4) walking, 5) hygiene, 6) reach, 7) grip, and 8) common daily activities. For each of these categories, patients report the amount of difficulty they have in performing two or three specific activities.
There are four possible responses for the Disability Index questions: • Without any difficulty=0 • With some difficulty=1 • With much difficulty=2 • Unable to do=3 • The highest score reported by the patient for any component question of the eight categories determines the score for that category. • If a component question is left blank or the response is too ambiguous to assign a score, then the score for that category is determined by the remaining completed question(s). • If all component questions are blank or if more than one answer is given, then follow up with the respondent is required. • If the respondent's mark is between the response columns, then move it to the closest one. If it's directly between the two, move it to the higher one.
The aid and device variables are not used to calculate the alternative disability index; it is calculated by adding the scores for each of the categories and dividing by the number of categories answered. This gives a score in the 0 to 3 range.

[3] = Excluding Outliers, ITT Population - Part A, last 7 days of dosing period
[4] = by Baseline RCS, second RCS subgroup of table (not named), ITT Population - Part A
[5] = excluding outliers, 2nd baseline RCS subgroup, ITT Part A
[6] = last 7 days of dosing period, ITT Part A
[7] = Modified ITT Population-Part A, Day 12, dose cilnidipine 10 mg, tadalafil 5 mg, alone or combined as labelled
[8] = Modified ITT Population-Part A, dose cilnidipine 10 mg, tadalafil 5 mg, alone or combined as labelled
[9] = Tadalafil 5 mg, SSc patients, PP, Part A

CN1CC(=O)N2[C@H](c3ccc4c(c3)OCO4)c3[nH]c4ccccc4c3C[C@@H]2C1=O [Tadalafil]
Average Duration of Weekly RP Attacks (All Attacks), Mean [1, 3]: 5.95 min | Average Duration of Weekly RP Attacks (All Attacks), Median [1, 3]: 5.95 min | Change from Baseline in average duration of weekly symptomatic RP attacks, Mean [1, 4]: 140.74 min | Change from Baseline in average duration of weekly symptomatic RP attacks, Median [1, 4]: 140.74 min | Percent Change from Baseline in average duration of weekly symptomatic RP attacks, Mean [1, 4]: 5.21% | Percent Change from Baseline in average duration of weekly symptomatic RP attacks, Median [1, 4]: 5.21% | Average duration of weekly RP attacks, Change from Baseline, Mean [1, 5]: -4.98 min | Average duration of weekly RP attacks, Change from Baseline, Median [1, 5]: -4.98 min | Average duration of weekly RP attacks, Percent Change from Baseline, Mean [1, 5]: −45.55% | Average duration of weekly RP attacks, Percent Change from Baseline, Median [1, 5]: −45.55% | Average Duration of weekly symptomatic RP attacks, Mean [1, 6]: 412.29 min | Average Duration of weekly symptomatic RP attacks, Median [1, 6]: 412.29 min | alternative disability index, Change from Baseline, Mean [2, 7]: −0.094 | alternative disability index, Change from Baseline, Median [2, 7]: −0.125 | alternative disability index, Percent Change from Baseline, Mean [2, 7]: −43.70% | alternative disability index, Percent Change from Baseline, Median [2, 7]: −20.00% | alternative disability index, In Clinic Visit (Day 12), Mean [2, 8]: 0.375 | alternative disability index, In Clinic Visit (Day 12), Median [2, 8]: 0.250 | SHAQ Alternative Disability Index, Change from Baseline, Max [2, 9]: 0.00 | SHAQ Alternative Disability Index, Change from Baseline, Mean [2, 9]: −0.094 | SHAQ Alternative Disability Index, Change from Baseline, Median [2, 9]: −0.125 | SHAQ Alternative Disability Index, Change from Baseline, Min [2, 9]: −0.13, | SHAQ Alternative Disability Index, Change from Baseline, Q3 [2, 9]: −0.063 | SHAQ Alternative Disability Index, Day 12, Max [2, 9]: 1.00 | SHAQ Alternative Disability Index, Day 12, Mean [2, 9]: 0.375 | SHAQ Alternative Disability Index, Day 12, Median [2, 9]: 0.250 | SHAQ Alternative Disability Index, Day 12, Min [2, 9]: 0.00, | SHAQ Alternative Disability Index, Day 12, Q1 [2, 9]: 0.000, | SHAQ Alternative Disability Index, Day 12, Q3 [2, 9]: 0.750 | SHAQ Alternative Disability Index, Percent Change from Baseline, Max [2, 9]: −11.1 | SHAQ Alternative Disability Index, Percent Change from Baseline, Mean [2, 9]: −43.70 | SHAQ Alternative Disability Index, Percent Change from Baseline, Median [2, 9]: −20.00 | SHAQ Alternative Disability Index, Percent Change from Baseline, Min [2, 9]: −100.0, | SHAQ Alternative Disability Index, Percent Change from Baseline, Q1 [2, 9]: −100.00, | SHAQ Alternative Disability Index, Percent Change from Baseline, Q3 [2, 9]: −11.11
